Results taken from patent publication US6451828B1, “Selective inhibition of glutaminase by bis-thiadiazoles” (priority 2000, dated 2002).

Key:
[1] = test system: cerebellar granule cells; experiment: Intracellular amino acids in primary cultures of cerebellar granule cells; format: cell-based
Experimental: After 5 h incubation, the cultures were washed twice with phosphate buffered saline, extracted with perchloric acid and analyzed for amino acids as described for FIG. 5A. To produce dose response curves for lowering of intracellular Glu and Asp (FIG. 6A-B), the procedure was repeated with 4 days (for cerebellar granule cells) and 12 days of incubation (for astrocytes). […] Results are shown in FIGS. 6A-B. Data are expressed as the ratio of Glu, Asp, or GABA to Ala (neurons and astrocytes) or Ser (astrocytes).

[2] = test system: intestinal epithelial (CACO2) cells; experiment: Intracellular amino acids in intestinal epithelial cells; format: cell-based
Experimental: When the cells reached about 80% confluency, fresh glutamine was added to 2 mM. […] After 6.5 h of incubation, cultures were washed twice with phosphate buffered saline and extracted with 100 μL 1M perchloric acid. Extracts were neutralized with 30 μL of 5M potassium carbonate, centrifuged, and analyzed by HPLC for nucleotides, as described in Di Pierro et al. 1995, and for amino acids, as described in Lo et al. 1998. Results are shown in FIG. 5A (amino acids) and FIG. 5B (nucleotides).

[3] = biological target: T1, caspase 9 (Homo sapiens, UniProt P55211); experiment: Specificity: effect on mechanistically related enzyme; format: biochemical; settings: at 30 μM (data not shown)
T1 sequence (P55211 1-416): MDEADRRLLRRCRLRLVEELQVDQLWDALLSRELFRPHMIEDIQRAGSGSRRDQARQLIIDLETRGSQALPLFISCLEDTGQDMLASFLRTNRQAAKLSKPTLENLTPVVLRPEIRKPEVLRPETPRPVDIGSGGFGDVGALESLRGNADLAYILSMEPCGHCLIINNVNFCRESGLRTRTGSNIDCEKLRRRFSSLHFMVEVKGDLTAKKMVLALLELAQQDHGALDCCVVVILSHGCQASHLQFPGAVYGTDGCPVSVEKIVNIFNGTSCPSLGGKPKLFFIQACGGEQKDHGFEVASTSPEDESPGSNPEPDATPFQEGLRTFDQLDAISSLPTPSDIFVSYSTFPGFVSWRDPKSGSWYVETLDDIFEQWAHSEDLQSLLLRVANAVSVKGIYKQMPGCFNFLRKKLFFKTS
Experimental: (§1) Specificity for glutaminase was evaluated at two levels. Compounds were evaluated for specific interactions with several thiol hydrolases (cathepsin B, caspase-9, calpain-1, and […]). These are cysteine proteases which are believed to function by a mechanisms similar to that of glutaminase. Compounds were also evaluated for effects on intracellular amino acids and nucleotides in CACO2 (intestinal epithelial) cells (Example 5), and for effects on amino acids in primary cultures of cerebellar neurons (granule cells) and astrocytes (Examples 6-7). These measurements reflect interactions with other glutamine utilizing enzymes involved in amino acid and nucleic acid biosynthesis and homeostasis. For example, a decrease in cytidine triphosphate (CTP) and an increase in uridine triphosphate (UTP) on treatment with DON (6-diazo-5-oxo-L-norleucine), a known nonselective antiglutamine affinity label, is indicative of inhibition of the activity of CTP synthetase, for which UTP is the substrate and CTP the product.

[4] = biological target: thrombin (Homo sapiens, UniProt P00734); experiment: as above; format: biochemical; settings: at 30 μM (data not shown)
Experimental: as §1

[5] = biological target: cathespin B (Homo sapiens, UniProt P07858); experiment: as above; format: biochemical; settings: at 30 μM (data not shown)
Experimental: as §1

[6] = biological target: T2, calpain 1 (Homo sapiens, UniProt P07384); experiment: as above; format: biochemical; settings: at 30 μM (data not shown)
T2 sequence (P07384 1-714): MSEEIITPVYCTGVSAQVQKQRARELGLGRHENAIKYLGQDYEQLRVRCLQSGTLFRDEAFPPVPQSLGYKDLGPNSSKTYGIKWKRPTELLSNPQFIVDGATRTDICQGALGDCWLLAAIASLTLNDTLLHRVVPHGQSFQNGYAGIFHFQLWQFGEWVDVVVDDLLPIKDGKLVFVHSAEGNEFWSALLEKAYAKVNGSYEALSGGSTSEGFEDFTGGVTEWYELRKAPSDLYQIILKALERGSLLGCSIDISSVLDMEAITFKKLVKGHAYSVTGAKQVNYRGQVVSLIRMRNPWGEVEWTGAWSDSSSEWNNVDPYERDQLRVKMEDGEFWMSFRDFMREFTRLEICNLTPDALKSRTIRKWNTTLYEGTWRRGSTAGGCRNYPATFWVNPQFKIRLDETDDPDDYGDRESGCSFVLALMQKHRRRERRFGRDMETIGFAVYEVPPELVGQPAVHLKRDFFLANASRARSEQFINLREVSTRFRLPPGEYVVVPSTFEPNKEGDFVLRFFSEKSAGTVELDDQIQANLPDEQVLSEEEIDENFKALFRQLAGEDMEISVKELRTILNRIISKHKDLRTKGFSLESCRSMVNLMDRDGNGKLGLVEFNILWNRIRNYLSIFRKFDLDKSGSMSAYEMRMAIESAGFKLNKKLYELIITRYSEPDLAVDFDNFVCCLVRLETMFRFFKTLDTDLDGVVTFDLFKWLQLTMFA
T2 sequence (P04632 1-268 partner): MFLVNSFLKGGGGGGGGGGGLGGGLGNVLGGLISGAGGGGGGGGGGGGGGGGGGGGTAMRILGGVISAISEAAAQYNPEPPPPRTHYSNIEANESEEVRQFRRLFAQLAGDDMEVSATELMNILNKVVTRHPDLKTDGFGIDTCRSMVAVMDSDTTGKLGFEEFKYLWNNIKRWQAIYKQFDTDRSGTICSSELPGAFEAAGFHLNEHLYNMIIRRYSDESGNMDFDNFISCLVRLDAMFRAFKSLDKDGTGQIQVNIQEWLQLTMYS
Experimental: as §1

[7] = CACO2, 10 nM to 10 μM, 6.5 h, FIG. 5A

In the case of `O=C(Cc1ccccc1)Nc1nnc(CCSCCc2nnc(NC(=O)Cc3ccccc3)s2)s1` [SNX-1770, bis-2′-[5-(phenylacetamido)-1,3,4-thiadiazol-2-yl]ethyl sulfide], the “Effect on intracellular (non-glutamate) amino acids, including serine, glycine, arginine, alanine, taurine” value ([1]; at 10 μM, cultured cerebellar neurons) is reported as “no effect”, the “Lowering of cellular glutamate” value ([1]; granule cell neurons, partial and specific) is reported as about 30% and the “Effect on cellular GABA” value ([1]; granule cells, levels up to 10 μM, FIG. 6C) is reported as “no effect”. For the same compound, the IC50 ([1]; primary cultures of cerebellar granule cells, read-out: IC50, lowering of cellular glutamate) was 50 to 100 nM, the “Effect on glutamate in cell extracts” value [2, 7] was “dose dependent decrease” and the “Effect on glycine or taurine in cell extracts” value [2, 7] was “no effect”. For the same compound, the “Lowering of cellular glutamate” value ([2]; CACO2 cells, partial and specific) was about 30%, the “Effect on intracellular (non-glutamate) amino acids, including serine, glycine, arginine, alanine, taurine” value ([2]; at 10 μM, intestinal epithelial cells) was “no effect” and the “Effect on caspase 9” value [3] was “Nor did it have any effect”. For the same compound, the Effect on thrombin [4] was “Nor did it have any effect”, the “Effect on cathespin B” value [5] was “Nor did it have any effect” and the “Effect on calpain 1” value [6] was “Nor did it have any effect”.
